Assay results taken from patent US12643859B2, “Pyridyl oxycarboxylic acid oxime derivative and preparation method therefor, weeding composition and application thereof” (Qingdao Kingagroot Chemical Compound Co., Ltd., priority 2018, dated 2026).

Test system: Monocotyledonous and dicotyledonous weed seeds and main crop seeds
Assay: Post-emergence test experiment (Table 3, 1000 g a.i./ha)
Type: in vivo
Conditions: 3 weeks in greenhouse, fresh weight inhibition
Experimental: The above described growth inhibition rate is fresh weight inhibition rate.
Post-emergence test experiment: Monocotyledonous and dicotyledonous weed seeds and main crop seeds (i. e. wheat, corn, rice, soybean, cotton, oilseed, millet and sorghum.) were put into a plastic pot loaded with soil. Then covered with 0.5-2 cm soil, the seeds were allowed to grow in good greenhouse environment. The test plants were treated at 2-3 leaf stage 2 weeks after sowing. The test compounds of the invention were dissolved with acetone respectively, then added with tween-80, and using 1.5 liters per hectare of an emulsible concentrate of methyl oleate as a synergist, and diluted by certain amount of water to certain concentration. The solution was sprayed to the plants with a sprayer. Then the plants were cultured for 3 weeks in the greenhouse, and the experiment result of weed controlling effect was listed in tables 3-4.

| Compound | Activity level (growth inhibition rate) Digitaria sanguinalis | Activity level (growth inhibition rate) Echinochloa crusgalli | Activity level (growth inhibition rate) Galium spurium | Activity level (growth inhibition rate) Leptochloa chinensis | Activity level (growth inhibition rate) Monochoria Vaginalis | Activity level (growth inhibition rate) Murdannia triquetra | Activity level (growth inhibition rate) Setaria viridis |
| --- | --- | --- | --- | --- | --- | --- | --- |
| CC(CCCl)=NOC(=O)C(C)Oc1nc(C)c(C)c(N)c1C (stereo not drawn) [Compound 19] | 5 (Level 5: the growth inhibition rate is greater than 85%) | 5 (Level 5: the growth inhibition rate is greater than 85%) | 5 (Level 5: the growth inhibition rate is greater than 85%) | 5 (Level 5: the growth inhibition rate is greater than 85%) | 5 (Level 5: the growth inhibition rate is greater than 85%) | 5 (Level 5: the growth inhibition rate is greater than 85%) | 5 (Level 5: the growth inhibition rate is greater than 85%) |
| CCCC(C)=NOC(=O)C(Oc1nc(F)c(Cl)c(N)c1Cl)C1CC1 (stereo not drawn) [Compound 28] | – | – | 5 (Level 5: the growth inhibition rate is greater than 85%) | – | 5 (Level 5: the growth inhibition rate is greater than 85%) | 5 (Level 5: the growth inhibition rate is greater than 85%) | – |
| CC(=NOC(=O)C(C)Oc1nc(F)c(Cl)c(N)c1Cl)c1ccc([N+](=O)[O-])cc1 (stereo not drawn) [Compound 71] | 5 (Level 5: the growth inhibition rate is greater than 85%) | 5 (Level 5: the growth inhibition rate is greater than 85%) | 5 (Level 5: the growth inhibition rate is greater than 85%) | 5 (Level 5: the growth inhibition rate is greater than 85%) | 5 (Level 5: the growth inhibition rate is greater than 85%) | 5 (Level 5: the growth inhibition rate is greater than 85%) | 5 (Level 5: the growth inhibition rate is greater than 85%) |
| CC(Oc1nc(F)c(Cl)c(N)c1Cl)C(=O)ON=Cc1cccc([N+](=O)[O-])c1 (stereo not drawn) [Compound 73] | 5 (Level 5: the growth inhibition rate is greater than 85%) | 5 (Level 5: the growth inhibition rate is greater than 85%) | 5 (Level 5: the growth inhibition rate is greater than 85%) | 5 (Level 5: the growth inhibition rate is greater than 85%) | 5 (Level 5: the growth inhibition rate is greater than 85%) | 5 (Level 5: the growth inhibition rate is greater than 85%) | 5 (Level 5: the growth inhibition rate is greater than 85%) |
| CC(Oc1nc(F)c(Cl)c(N)c1Cl)C(=O)ON=C(c1ccccc1)c1cccc(Cl)c1 (stereo not drawn) [Compound 79] | 5 (Level 5: the growth inhibition rate is greater than 85%) | 5 (Level 5: the growth inhibition rate is greater than 85%) | 5 (Level 5: the growth inhibition rate is greater than 85%) | 5 (Level 5: the growth inhibition rate is greater than 85%) | 5 (Level 5: the growth inhibition rate is greater than 85%) | 5 (Level 5: the growth inhibition rate is greater than 85%) | 5 (Level 5: the growth inhibition rate is greater than 85%) |
| CC(Oc1nc(F)c(Cl)c(N)c1Cl)C(=O)ON=C(c1ccccc1)c1ccc(C2CC2)cc1 (stereo not drawn) [Compound 80] | 5 (Level 5: the growth inhibition rate is greater than 85%) | 5 (Level 5: the growth inhibition rate is greater than 85%) | 5 (Level 5: the growth inhibition rate is greater than 85%) | 5 (Level 5: the growth inhibition rate is greater than 85%) | 5 (Level 5: the growth inhibition rate is greater than 85%) | 5 (Level 5: the growth inhibition rate is greater than 85%) | 5 (Level 5: the growth inhibition rate is greater than 85%) |
| CC(Oc1nc(F)c(Cl)c(N)c1Cl)C(=O)ON=C(c1ccccc1)c1ccc(C(F)(F)F)cc1 (stereo not drawn) [Compound 81] | 5 (Level 5: the growth inhibition rate is greater than 85%) | 5 (Level 5: the growth inhibition rate is greater than 85%) | 5 (Level 5: the growth inhibition rate is greater than 85%) | 5 (Level 5: the growth inhibition rate is greater than 85%) | 5 (Level 5: the growth inhibition rate is greater than 85%) | 5 (Level 5: the growth inhibition rate is greater than 85%) | 5 (Level 5: the growth inhibition rate is greater than 85%) |
| CC(Oc1nc(F)c(Cl)c(N)c1Cl)C(=O)ON=C(c1ccc(Cl)cc1)c1cccc(F)c1 (stereo not drawn) [Compound 82] | 5 (Level 5: the growth inhibition rate is greater than 85%) | 5 (Level 5: the growth inhibition rate is greater than 85%) | 5 (Level 5: the growth inhibition rate is greater than 85%) | 5 (Level 5: the growth inhibition rate is greater than 85%) | 5 (Level 5: the growth inhibition rate is greater than 85%) | 5 (Level 5: the growth inhibition rate is greater than 85%) | 5 (Level 5: the growth inhibition rate is greater than 85%) |
| CC(Oc1nc(F)c(Cl)c(N)c1Cl)C(=O)ON=C(c1ccccc1)c1ccc(F)cc1 (stereo not drawn) [Compound 83] | 5 (Level 5: the growth inhibition rate is greater than 85%) | 5 (Level 5: the growth inhibition rate is greater than 85%) | 5 (Level 5: the growth inhibition rate is greater than 85%) | 5 (Level 5: the growth inhibition rate is greater than 85%) | 5 (Level 5: the growth inhibition rate is greater than 85%) | 5 (Level 5: the growth inhibition rate is greater than 85%) | 5 (Level 5: the growth inhibition rate is greater than 85%) |
| CCc1cccc(C(Cl)=NOC(=O)C(C)Oc2nc(F)c(Cl)c(N)c2Cl)c1 (stereo not drawn) [Compound 85] | 5 (Level 5: the growth inhibition rate is greater than 85%) | 5 (Level 5: the growth inhibition rate is greater than 85%) | 5 (Level 5: the growth inhibition rate is greater than 85%) | 5 (Level 5: the growth inhibition rate is greater than 85%) | 5 (Level 5: the growth inhibition rate is greater than 85%) | 5 (Level 5: the growth inhibition rate is greater than 85%) | 5 (Level 5: the growth inhibition rate is greater than 85%) |
